These results are taken from US5602141A, “Camptothecin derivatives and process for their preparation” (Pharmacia & Upjohn S.P.A., priority 1994, dated 1997).

For data set [1] the following is noted: Slichenmyer et al. 1993; cited from earlier work.
The subject of another data set is Topoisomerase I. Conditions: Wani et al. 1987; Hsiang et al. 1989; cited from earlier work.
The subject of the next data set is L1210 murine leukemia. The data set is described as follows: Method (b): antitumor (antileukemic) activity, L1210 murine leukemia implanted ip into CD2F1 mice, median survival time. Conditions: 24 h after tumor cells implant (day 1). In kind it is in vivo. The method, then:
Method (b): Evaluation of Antitumor Activity
L1210 murine leukemia was maintained in DBA2 mice by weekly ip transplants of 10^5 cells/mouse. For assaying the antileukemic activity, […] were implanted ip into CD2F1 mice; graded doses of the compounds under evaluation were administered ip 24 h after tumor cells implant on day 1 controls receiving vehicle alone.
The activity of the drugs was determined evaluating the median survival time (MST) of each group of mice.
The obtained results, expressed as % T/C, are reported on Table 3 below.

Data set [2] deals with L1210 murine leukemia cells. Description: Method (a): cytotoxic activity on L1210 murine leukemia cells, 48 h exposure, Coulter Counter. It is filed as cell-based. The following applies: Mus musculus, 48 h at 37° C., mean of 3 different experiments, read-out: IC50 (dose causing 50% inhibition of cell growth relative to untreated controls). The method, then:
Method (a): Evaluation of Cytotoxic Activity
L1210 murine leukemia cells were grown in vitro as a stationary suspension in RPMI 1640 medium supplemented with 10% fetal calf serum, 2 mM L-glutamine, 10 μM B-mercaptoethanol, 100 UI/ml penicillin and 100 μg streptomycin. For assaying the cytotoxic activity, exponentialily growing cells were seeded at the concentration of 1×10^5 cells/ml and exposed to graded doses of the compounds under evaluation for 48 h at 37° C. in an humidified atmosphere of 5% CO2. The number of surviving cells was determined with a Coulter Counter; results are expressed as IC50 (dose causing 50% inhibition of cell growth in treated cultures relative to untreated controls after 48 h treatment).
In this assay, 9-(iminomethyl-amino)-camptothecin (internal code FCE 28536) and 9-(dimethylamino-methyleneamino)-camptothecin (internal code FCE 29006) were tested and the obtained results, which represent the mean of 3 different experiments, are reported on Table 2 below.

A word on the IC50: it is the concentration needed to halve the response being measured.

In the case of `CC[C@@]1(O)C(=O)OCc2c1cc1n(c2=O)Cc2cc3c(N)cccc3nc2-1` [9-amino camptothecin], the “solubility in aqueous solutions” value in data set [1] was “low solubility in aqueous solutions”. Also, the “antitumor activity by the inhibition of Topoisomerase I” value in the data set on Topoisomerase I was “potent antitumor activity by the inhibition of Topoisomerase I”.
In the case of `CC[C@@]1(O)C(=O)OCc2c1cc1n(c2=O)Cc2cc3ccccc3nc2-1` [Camptothecin, camptothecin], the “solubility in aqueous solutions” value in data set [1] is “low solubility in aqueous solutions”. The “antitumor activity by the inhibition of Topoisomerase I” value in the data set on Topoisomerase I is given as “potent antitumor activity by the inhibition of Topoisomerase I”.
Consider `CC[C@@]1(O)C(=O)OCc2c1cc1n(c2=O)Cc2cc3c(NC=N)cccc3nc2-1` [FCE 28536, 9-(iminomethyl-amino)-camptothecin], for which the figures for the “% T/C (MST treated mice/MST control mice × 100)” value in the data set on L1210 murine leukemia (5 mg/kg ip) and in the data set with L1210 murine leukemia (10 mg/kg ip) were 150-163% and 188%, respectively. Moreover, the IC50 in data set [2] is 82 nM.
As to `CC[C@@]1(O)C(=O)OCc2c1cc1n(c2=O)Cc2cc3c(N=CN(C)C)cccc3nc2-1` [FCE 29006, 9-(dimethylamino-methyleneamino)-camptothecin], the entries for the “% T/C (MST treated mice/MST control mice × 100)” value in the data set with L1210 murine leukemia (5 mg/kg ip), with L1210 murine leukemia (10 mg/kg ip) and in the data set on L1210 murine leukemia (15 mg/kg ip) were 150%, 163% and 175%, respectively. Further, the IC50 in data set [2] is 120 nM.
